Our source for the Ki values is patent US5455242A, “Carboxyalkyl tricyclic derivatives useful as inhibitors of enkephalinase and ace” (Merrell Dow Pharmaceuticals Inc., priority 1993, dated 1995).

The target of the test is T1, Enkephalinase (Rattus norvegicus, UniProt P07861).
T1 construct: Enkephalinase is partially purified from rat kidney; from tissue; host or cells: rat kidney (microvilli fraction)
T1 sequence (P07861 1-750): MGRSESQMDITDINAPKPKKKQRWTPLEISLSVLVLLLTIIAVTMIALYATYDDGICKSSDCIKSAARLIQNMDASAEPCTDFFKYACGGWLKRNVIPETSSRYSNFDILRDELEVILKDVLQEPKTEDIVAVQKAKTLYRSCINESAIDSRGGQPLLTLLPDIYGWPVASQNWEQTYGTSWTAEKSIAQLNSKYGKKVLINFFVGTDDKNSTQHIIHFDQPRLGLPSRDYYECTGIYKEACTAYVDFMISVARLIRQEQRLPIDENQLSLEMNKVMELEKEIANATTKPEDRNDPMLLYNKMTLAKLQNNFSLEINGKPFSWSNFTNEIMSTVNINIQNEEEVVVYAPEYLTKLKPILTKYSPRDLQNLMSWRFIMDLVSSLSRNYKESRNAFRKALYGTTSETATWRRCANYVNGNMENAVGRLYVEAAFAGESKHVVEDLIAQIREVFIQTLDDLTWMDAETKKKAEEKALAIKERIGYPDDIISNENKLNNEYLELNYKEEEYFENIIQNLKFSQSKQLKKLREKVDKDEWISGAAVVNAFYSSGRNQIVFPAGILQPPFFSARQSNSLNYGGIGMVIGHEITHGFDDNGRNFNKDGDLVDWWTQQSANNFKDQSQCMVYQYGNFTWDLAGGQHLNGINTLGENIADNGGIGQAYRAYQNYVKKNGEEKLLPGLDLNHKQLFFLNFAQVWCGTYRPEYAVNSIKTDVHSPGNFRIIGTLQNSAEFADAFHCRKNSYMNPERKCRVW
The test can be described thus: Enkephalinase inhibition (fluorometric assay, enzyme partially purified from rat kidney). The format is biochemical. The settings on record: 50 mM HEPES pH 7.4, 25° C., 12 μM dansyl-D-AlaGly(p-nitro)PheGly. The source says: Enkephalinase is partially purified from rat kidney. The enzyme is extracted from the microvilli fraction by using Triton X-100 according to the method of Malfroy and Schwartz [J. Biol. Chem. 259, 14365-14370 (1984)]or by using a proteolytic treatment according to the method of Almenoff and Orlowski [Biochem. 22, 590-599 (1983)]. The enzyme is further purified by anion exchange chromatography (Mono Q™ column, Pharmacia) using a Pharmacia FPLC system. The enzyme activity may be measured by the fluorometric methods of Florentin et al. [Anal. Biochem. 141, 62-69 (1984)]or of Almenoff and Orlowski [J. Neurochemistry 42, 151-157 (1984)]. The enzyme is assayed in 50 mM HEPES buffer (pH 7.4) in a 3.0 mL reaction volume containing 12 μM of the substrate dansyl-D-AlaGly(p-nitro)PheGly(Km =40 μM) at 25° C. The substrate (and inhibitor) is added from a concentrated stock solution in DMSO (up to 0.1 mL DMSO final volume). The enzyme in a small volume (approximately 0.1 μg of FPLC purified protein) is added to initiate the reaction and the rate of fluorecense increase is recorded continuously using a fluorometer (excitation at 339 nm, emission at 562 nm).

A word on the Ki: it is a dissociation constant, usually derived from enzyme kinetics or from competition with a known ligand. With `O=C(O)CC(Cc1ccccc1)C(=O)N[C@H]1Cc2ccccc2[C@H]2CCC[C@@H](C(=O)O)N2C1=O` (stereo partly drawn) [101,287, [4S-[4α, 7α(R*), 12bβ]]-7-[(1-Oxo-2-carboxymethyl-3-phenylpropyl)amino]-1,2,3,4,6,7,8,12b-octahydro-6-oxopyrido[2,1-a][2]benzazepine-4-carboxylic acid], the Ki stood at 5 nM.
